The record followed here is patent publication US20130137716A1, “PARENTERAL DEXTROSE FORMULATION OF CLOPIDOGREL” (ACADEMIC PHARMACEUTICALS INCORPORATED, priority 2011, published 2013).

The data set can be described thus: Storage stability of clopidogrel solution at room temperature and at 40°. The format is physicochemical.

Regarding `COC(=O)[C@H](c1ccccc1Cl)N1CCc2sccc2C1` [clopidogrel], the “ability of solvent to form a stable solution of clopidogrel” value is listed as “not capable of forming a stable solution” (D5W (5% dextrose in water)); “capable of forming a stable solution” (D50W (50% dextrose in water), room temperature and 40°).
